pEC50: −log10 of the molar value.
What was measured:
Assay type in all cases: cell-based
human PPARalpha receptor = molecular target: T1, human PPARalpha receptor (Homo sapiens, UniProt Q07869); test: cellular GAL4 reporter gene assay (M1H) in HEK293 cells, PPARalpha; conditions: agonist mode
T1 construct: expressed in transfected cells; host or cells: HEK293 (DSMZ ACC 305)
T1 sequence (Q07869 239-466 limits assumed): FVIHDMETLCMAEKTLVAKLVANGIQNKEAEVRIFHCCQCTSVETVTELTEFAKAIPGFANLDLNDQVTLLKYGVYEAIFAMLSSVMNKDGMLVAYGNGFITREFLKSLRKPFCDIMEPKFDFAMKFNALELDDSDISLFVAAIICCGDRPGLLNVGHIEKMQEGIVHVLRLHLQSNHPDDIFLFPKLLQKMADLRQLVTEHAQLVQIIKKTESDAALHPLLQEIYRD
Procedure: The compounds BIZ-102 (Example 2), BIZ-103 (Example 5) and BIZ-106 were tested at the human PPARalpha receptor in a cellular GAL4 Reporter gene assay. The assay was run in agonist and antagonist mode to detect agonistic as well as antagonistic activities of the tested compounds.
Performance of the GAL4 cellular reporter assay:
Day 1: Cells were seeded in 96 well plates in plating medium (MEM with serum), incubation overnight at 37° C., 5% CO2.
Day 2: Removal of plating medium
Addition of PEI-based transfection agent
Incubation for 4-6 hours at 37° C., 5% CO2
Addition of assay medium (MEM with serum)
Addition of compounds (dilution series was generated in MEM with serum)
Incubation overnight at 37° C., 5% CO2
Day 3: Removal of assay medium (16-20 hours after compound addition)
Addition of Passive Lysis Buffer (Promega)
15 mins incubation at room temperature
Addition of luciferase buffers and measurement in a dual-flash procedure
(§1) The assays were done in HEK293 cells (DSMZ ACC 305). The plasmids used in the GAL4 assay system were derivatives of Stratagene's M2H plasmids: the reporter plasmid pFR-Luc (containing a synthetic promoter with five tandem repeats of the yeast GAL4 binding sites that control expression of the Photinus pyralis (American firefly) luciferase gene), and pCMV-BD (for fusions of nuclear receptor ligand binding domains to the DNA-binding domain of the yeast protein GAL4). In order to improve experimental accuracy, a second reporter—Renilla reniformis luciferase, driven by a constitutive promoter—was included as an internal control. Using the control reporter (Renilla Luciferase) allowed corrections for variations in experimental handling, e.g. transfection efficacy, cell viability, pipetting errors, cell lysis efficiency and assay efficiency.
Primary read out of the assays was loaded into PhAST (Phenex Assay and Screening Tool) and checked for assay quality (generation of SB and Zprime values). […] Within PhAST there are two measured and one calculated data layers:
LAYER1 (measured)—contains the activity values of the firefly luciferase activities and is a direct measure for modulation of the cofactor binding properties of the Nuclear Receptors by the tested compounds.
LAYER2 (measured)—contains the activity values of the renilla luciferase activities and is used as normalisation layer. As the renilla luciferase is expressed under control of the constitutively active CMV promoter, moderate well-to-well differences can be used to correct for variations in experimental handling.
LAYER3 (calculated)—is calculated according to the following equation: […]
1000*Firefly luciferase value/Renilla luciferase value
These normalised values are, as well as LAYER1, a measure for the modulation of the cofactor binding properties of the nuclear receptors by the tested compounds.

human PPARbeta/delta = molecular target: T2, human PPARbeta/delta (Homo sapiens, UniProt Q03181); test: cellular GAL4 reporter gene assay, agonist mode, PPARbeta/delta
T2 construct: expressed in transfected cells; host or cells: HEK293 (DSMZ ACC 305)
T2 sequence (Q03181 211-439 limits assumed): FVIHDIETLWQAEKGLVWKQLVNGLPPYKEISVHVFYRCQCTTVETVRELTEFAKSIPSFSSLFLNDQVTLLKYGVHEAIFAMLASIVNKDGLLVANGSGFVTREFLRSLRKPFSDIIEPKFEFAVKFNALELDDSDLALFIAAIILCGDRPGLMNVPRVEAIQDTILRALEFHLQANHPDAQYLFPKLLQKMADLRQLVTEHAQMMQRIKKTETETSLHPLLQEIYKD
Source text: as §1, with “M2H” left out, “reporter-Renilla” for “reporter—Renilla”, “promoter-was” for “promoter—was”, “efficiency. […] The compounds BIZ-102 and BIZ-103 were tested at the human PPARbeta/delta and PPARgamma receptors using the same cellular GAL4 Reporter gene assays as in Example 6. The assays were run in agonist mode to detect agonistic activities of the tested compounds.” for “efficiency.”

human PPARgamma = molecular target: T3, human PPARgamma (Homo sapiens, UniProt P37231); test: cellular GAL4 reporter gene assay, agonist mode, PPARgamma
T3 construct: expressed in transfected cells; host or cells: HEK293 (DSMZ ACC 305)
T3 sequence (P37231 238-503 limits assumed): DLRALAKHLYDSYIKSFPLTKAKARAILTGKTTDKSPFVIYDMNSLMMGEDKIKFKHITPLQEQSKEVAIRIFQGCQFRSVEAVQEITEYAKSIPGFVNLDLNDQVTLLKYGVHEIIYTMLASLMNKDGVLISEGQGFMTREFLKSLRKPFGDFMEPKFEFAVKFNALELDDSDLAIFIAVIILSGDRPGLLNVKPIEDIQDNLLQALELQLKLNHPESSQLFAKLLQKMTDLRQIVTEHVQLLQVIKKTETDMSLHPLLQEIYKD
Source text: as §1, with “M2H” left out, “reporter-Renilla” for “reporter—Renilla”, “promoter-was” for “promoter—was”, “efficiency. […] The compounds BIZ-102 and BIZ-103 were tested at the human PPARbeta/delta and PPARgamma receptors using the same cellular GAL4 Reporter gene assays as in Example 6. The assays were run in agonist mode to detect agonistic activities of the tested compounds.” for “efficiency.”

## CCCCC/C=C\C/C=C\C/C=C\C/C=C\CCC(CC)C(=O)O (stereo not shown) [BIZ-102, (All-Z) 2-ethyl-5,8,11,14-eicosatetraenoic Acid]
Human PPARalpha receptor; HEK293
  Efficacy vs. Fenofibric Acid: 45%
  Efficacy vs. GW7647: 150%
Human PPARalpha receptor; HEK293, GAL4 reporter
  pEC50: 6.46
Human PPARbeta/delta
  pEC50: 5.37
  PPARbeta/delta efficacy vs. GW501516: 20%
Human PPARgamma
  pEC50: 5.82
  PPARgamma efficacy vs. Rosiglitazone: 23%

— patent publication US20190284129A1, “LIPID COMPOUNDS AND COMPOSITIONS AND THEIR OPTHALMIC USE” (BIOZEP AS, priority 2015, published 2019)
